How the values were obtained:
[1] = tested on: MCF-7 cell line; test: Potentiation of cell killing activity of Methyl Methane Sulphonate (MMS) in MCF-7 cells, MTT assay; type: cell-based; details: compound at 100 nM, cell survival without/with alkylating agent MMS
Description: Potentiation of cell killing activity of Methyl Methane Sulphonate (MMS) by selected compounds according to present invention was evaluated in MCF-7 cell line obtained from National Centre for Cell Science, Pune, by using MTT assay according to general protocol described in Methods in Molecular Biology, Volume-43, In vitro Toxicity Testing Protocol, Chapter-6, page: 137-149. Compounds were tested for PARP 1 activity based on percent cell survival of MCF-7 cells with alkylating agent MMS.

[2] = target: T1, PARP-1 (Homo sapiens, UniProt P09874); test: PARP-1 inhibitory activity, HT universal colorimetric PARP assay kit (Trevigen); type: biochemical; details: HT universal colorimetric PARP assay kit; read-out: PARP-1 activity in vitro IC50 nM)
T1 construct: purchased Trevigen
T1 sequence (P09874 whole entry): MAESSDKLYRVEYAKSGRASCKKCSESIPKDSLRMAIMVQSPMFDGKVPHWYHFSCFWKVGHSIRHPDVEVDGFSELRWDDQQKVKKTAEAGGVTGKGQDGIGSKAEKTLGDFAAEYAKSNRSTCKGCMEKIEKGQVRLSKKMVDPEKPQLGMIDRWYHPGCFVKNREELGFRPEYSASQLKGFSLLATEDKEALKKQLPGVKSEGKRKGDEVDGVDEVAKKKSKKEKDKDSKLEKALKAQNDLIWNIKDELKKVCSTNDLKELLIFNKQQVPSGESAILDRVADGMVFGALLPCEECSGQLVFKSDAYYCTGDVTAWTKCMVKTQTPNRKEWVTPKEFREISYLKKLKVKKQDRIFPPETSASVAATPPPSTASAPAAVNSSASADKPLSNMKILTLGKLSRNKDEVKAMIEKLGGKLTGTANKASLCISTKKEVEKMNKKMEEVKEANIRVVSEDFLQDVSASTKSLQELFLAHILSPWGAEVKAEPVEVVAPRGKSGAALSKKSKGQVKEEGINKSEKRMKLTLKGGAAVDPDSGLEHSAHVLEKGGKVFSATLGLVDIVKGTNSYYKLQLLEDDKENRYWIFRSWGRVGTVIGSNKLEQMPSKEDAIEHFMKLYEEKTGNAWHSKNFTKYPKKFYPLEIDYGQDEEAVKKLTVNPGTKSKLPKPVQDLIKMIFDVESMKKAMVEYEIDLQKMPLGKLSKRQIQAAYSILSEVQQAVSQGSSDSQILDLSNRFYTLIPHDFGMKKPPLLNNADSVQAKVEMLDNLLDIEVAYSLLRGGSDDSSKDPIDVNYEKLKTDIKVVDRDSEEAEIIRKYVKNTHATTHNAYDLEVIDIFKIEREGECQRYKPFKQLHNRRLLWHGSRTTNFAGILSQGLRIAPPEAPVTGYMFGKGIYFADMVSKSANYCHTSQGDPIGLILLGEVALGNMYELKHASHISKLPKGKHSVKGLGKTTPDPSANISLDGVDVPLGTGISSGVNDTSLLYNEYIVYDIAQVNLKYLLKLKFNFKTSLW
Description: The compounds were tested for PARP-1 inhibitory activity by using HT universal colorimetric PARP assay kit obtained from Trevigen, following manufacturer's protocol.

SMILES | IC50 [2] | Survival affected by drug [(−MMS/+MMS)] at 100 nM [1]
CC(C)(Oc1ccc(Br)cc1Cl)C(=O)N1CCN(C(=O)c2cc(Cc3n[nH]c(=O)c4ccccc34)ccc2F)CC1 [Example 20, 4-(3-(4-(2-(4-bromo-2-chlorophenoxy)-2-methylpropanoyl)piperazine-1-carbonyl)-4-fluorobenzyl)phthalazin-1(2H)-one] | 14.3 nM | 2.15
CC(C)(Sc1ccc(Cl)c(Cl)c1)C(=O)N1CCN(C(=O)c2cc(Cc3n[nH]c(=O)c4ccccc34)ccc2F)CC1 [Example 30, 4-(3-(4-(2-((3,4-dichlorophenyl)thio)-2-methylpropanoyl)piperazine-1-carbonyl)-4-fluorobenzyl)phthalazin-1(2H)-one] | 9.38 nM | 2.22
Cc1cc(OC(C)(C)C(=O)N2CCN(C(=O)c3cc(Cc4n[nH]c(=O)c5ccccc45)ccc3F)CC2)cc(C)c1Br [Example 37, 4-(3-(4-(2-(4-bromo-3,5-dimethylphenoxy)-2-methylpropanoyl)piperazine-1-carbonyl)-4-fluorobenzyl)phthalazin-1(2H)-one] | 16.5 nM | 1.61
CC(C)(Sc1ccccc1)C(=O)N1CCN(C(=O)c2cc(Cc3n[nH]c(=O)c4ccccc34)ccc2F)CC1 [Example 46, 4-(4-fluoro-3-(4-(2-methyl-2-(phenylthio)propanoyl)piperazine-1-carbonyl)benzyl)phthalazin-1(2H)-one] | 10.6 nM | 2.28
CC(C)(Sc1ccc(Cl)cc1Cl)C(=O)N1CCN(C(=O)c2cc(Cc3n[nH]c(=O)c4ccccc34)ccc2F)CC1 [Example 31, 4-(3-(4-(2-((2,4-dichlorophenyl)thio)-2-methylpropanoyl)piperazine-1-carbonyl)-4-fluorobenzyl)phthalazin-1(2H)-one] | 3.05 nM | 1.94
CC(C)(SC1CCCC1)C(=O)N1CCN(C(=O)c2cc(Cc3n[nH]c(=O)c4ccccc34)ccc2F)CC1 [Example 36, 4-(3-(4-(2-(cyclopentylthio)-2-methylpropanoyl)piperazine-1-carbonyl)-4-fluorobenzyl)phthalazin-1(2H)-one] | 5.17 nM | 2.59
CC(C)(Sc1cc(Cl)ccc1Cl)C(=O)N1CCN(C(=O)c2cc(Cc3n[nH]c(=O)c4ccccc34)ccc2F)CC1 [Example 33, 4-(3-(4-(2-((2,5-dichlorophenyl)thio)-2-methylpropanoyl)piperazine-1-carbonyl)-4-fluorobenzyl)phthalazin-1(2H)-one] | 7.9 nM | 1.98
CC(C)(Oc1cccc(C(F)(F)F)c1)C(=O)N1CCN(C(=O)c2cc(Cc3n[nH]c(=O)c4ccccc34)ccc2F)CC1 [Example 21, 4-(4-fluoro-3-(4-(2-methyl-2-(3-(trifluoromethyl)phenoxy)propanoyl)piperazine-1-carbonyl)benzyl)phthalazin-1(2H)-one] | 12 nM | 1.62
O=C(c1cc(Cc2n[nH]c(=O)c3ccccc23)ccc1F)N1CCN(C(=O)C2CC2)CC1 [AZD, reference compound] |  | 2.19
COc1cccc(SC(C)(C)C(=O)N2CCN(C(=O)c3cc(Cc4n[nH]c(=O)c5ccccc45)ccc3F)CC2)c1 [Example 28, 4-(4-fluoro-3-(4-(2-((3-methoxyphenyl)thio)-2-methylpropanoyl)piperazine-1-carbonyl)benzyl)phthalazin-1(2H)-one] | 7.08 nM | 2.08
CC(C)(Nc1ccccc1)C(=O)N1CCN(C(=O)c2cc(Cc3n[nH]c(=O)c4ccccc34)ccc2F)CC1 [Example 35, 4-(4-fluoro-3-(4-(2-methyl-2-(phenylamino)-propanoyl)piperazine-1-carbonyl)benzyl)phthalazin-1(2H)-one] | 3.56 nM | 3.33
CC(C)(C(=O)N1CCN(C(=O)c2cc(Cc3n[nH]c(=O)c4ccccc34)ccc2F)CC1)[S+]([O-])c1ccc(Cl)cc1Cl (stereo not drawn) [Example 39, 4-(3-(4-(2-(2,4-dichlorophenylsulfinyl)-2-methylpropanoyl)piperazine-1-carbonyl)-4-fluorobenzyl)phthalazin-1(2H)-one] | 9.47 nM | 2.29
CC(C)(Sc1ccccn1)C(=O)N1CCN(C(=O)c2cc(Cc3n[nH]c(=O)c4ccccc34)ccc2F)CC1 [Example 38, 4-(4-fluoro-3-(4-(2-methyl-2-(pyridin-2-ylthio)propanoyl)piperazine-1-carbonyl)benzyl)phthalazin-1(2H)-one] | 5 nM | 1.96
CC(C)(Oc1ccccn1)C(=O)N1CCN(C(=O)c2cc(Cc3n[nH]c(=O)c4ccccc34)ccc2F)CC1 [Example 17, 4-(4-fluoro-3-(4-(2-methyl-2-(pyridin-2-yloxy)propanoyl)piperazine-1-carbonyl)benzyl)phthalazin-1(2H)-one] | 13.9 nM | 1.93

Second part, led by results:

IC50 [2] | SMILES | Survival affected by drug [(−MMS/+MMS)] at 100 nM [1]
5.7 nM | CC(C)(Sc1cccc(F)c1)C(=O)N1CCN(C(=O)c2cc(Cc3n[nH]c(=O)c4ccccc34)ccc2F)CC1 [Example 32, 4-(4-fluoro-3-(4-(2-((3-fluorophenyl)thio)-2-methylpropanoyl)piperazine-1-carbonyl)benzyl)phthalazin-1(2H)-one] | 2.08
4.66 nM | CC(C)(C(=O)N1CCN(C(=O)c2cc(Cc3n[nH]c(=O)c4ccccc34)ccc2F)CC1)S(=O)(=O)c1ccc(F)cc1 [Example 24, 4-(4-fluoro-3-(4-(2-((4-fluorophenyl)sulfonyl)-2-methylpropanoyl)piperazine-1-carbonyl)benzyl)phthalazin-1(2H)-one] | 2.28
5.94 nM | CC(C)(C(=O)N1CCN(C(=O)c2cc(Cc3n[nH]c(=O)c4ccccc34)ccc2F)CC1)[S+]([O-])c1ccc(F)cc1 (stereo not drawn) [Example 25, 4-(4-fluoro-3-(4-(2-((4-fluorophenyl)sulfinyl)-2-methylpropanoyl)piperazine-1-carbonyl)benzyl)phthalazin-1(2H)-one] | 2.15
5.17 nM | CC(C)(Sc1ccc(F)cc1F)C(=O)N1CCN(C(=O)c2cc(Cc3n[nH]c(=O)c4ccccc34)ccc2F)CC1 [Example 27, 4-(3-(4-(2-((2,4-difluorophenyl)thio)-2-methylpropanoyl)piperazine-1-carbonyl)-4-fluorobenzyl)phthalazin-1(2H)-one] | 2.49
8.6 nM | CC(C)(Sc1ccccc1Br)C(=O)N1CCN(C(=O)c2cc(Cc3n[nH]c(=O)c4ccccc34)ccc2F)CC1 [Example 29, 4-(3-(4-(2-((2-bromophenyl)thio)-2-methylpropanoyl)piperazine-1-carbonyl)-4-fluorobenzyl)phthalazin-1(2H)-one] | 2.22
6.68 nM | CC(C)(Nc1ccc(F)cc1)C(=O)N1CCN(C(=O)c2cc(Cc3n[nH]c(=O)c4ccccc34)ccc2F)CC1 [Example 34, 4-(4-fluoro-3-(4-(2-((4-fluorophenyl)amino)-2-methylpropanoyl)piperazine-1-carbonyl)-benzyl)phthalazin-1(2H)-one] | 2.85
4.23 nM | CC(C)(C(=O)N1CCN(C(=O)c2cc(Cc3n[nH]c(=O)c4ccccc34)ccc2F)CC1)S(=O)(=O)c1ccccc1 [Example 23, 4-(4-fluoro-3-(4-(2-methyl-2-(phenylsulfonyl)propanoyl)piperazine-1-carbonyl)benzyl)phthalazin-1(2H)-one] | 2.11
9.16 nM | CC(C)(Sc1ccc(Br)cc1)C(=O)N1CCN(C(=O)c2cc(Cc3n[nH]c(=O)c4ccccc34)ccc2F)CC1 [Example 47, 4-(3-(4-(2-((4-bromophenyl)thio)-2-methylpropanoyl)piperazine-1-carbonyl)-4-fluorobenzyl)phthalazin-1(2H)-one] | 2.12
6.43 nM | CC(C)(Oc1ccc(F)cc1F)C(=O)N1CCN(C(=O)c2cc(Cc3n[nH]c(=O)c4ccccc34)ccc2F)CC1 [Example 26, 4-(3-(4-(2-(2,4-difluorophenoxy)-2-methylpropanoyl)piperazine-1-carbonyl)-4-fluorobenzyl)phthalazin-1(2H)-one] | 2.59
12.4 nM | CC(C)(Oc1ccccc1[N+](=O)[O-])C(=O)N1CCN(C(=O)c2cc(Cc3n[nH]c(=O)c4ccccc34)ccc2F)CC1 [Example 19, 4-(4-fluoro-3-(4-(2-methyl-2-(2-nitrophenoxy)propanoyl)piperazine-1-carbonyl)benzyl)phthalazin-1(2H)-one] | 2.19
5.3 nM | CC(C)(Sc1ccc(F)cc1)C(=O)N1CCN(C(=O)c2cc(Cc3n[nH]c(=O)c4ccccc34)ccc2F)CC1 [Example 22, 4-(4-fluoro-3-(4-(2-((4-fluorophenyl)thio)-2-methylpropanoyl)piperazine-1-carbonyl)benzyl)phthalazin-1(2H)-one] | 2.1
11 nM | COc1ccc(OC(C)(C)C(=O)N2CCN(C(=O)c3cc(Cc4n[nH]c(=O)c5ccccc45)ccc3F)CC2)cc1 [Example 3, 4-(4-fluoro-3-(4-(2-methyl-2-(4-methoxyphenoxy)propanoyl)piperazine-1-carbonyl)benzyl)phthalazin-1(2H)-one] | 2.07
